Molecular target: T1, Histamine H4 receptor (Homo sapiens, UniProt Q9H3N8)
Experiment: biochemical
Format: cell-based, SK-N-MC
Details: not given

Row | SMILES | Ki
1 | NC(=NCCc1ccc(I)cc1)SCCCc1cnc[nH]1 [IODOPHENPROPIT] | 7.8 nM
2 | C[C@@H](N)Cc1c[nH]cn1 | 184 nM
3 | NC(=NCc1ccc(Cl)cc1)SCCCc1cnc[nH]1 [CLOBENPROPIT] | 5 nM
4 | C/N=C(\N)N/N=C(/C)c1ccc2sc3ccc(/C(C)=N\N/C(N)=N/C)cc3c2c1 | 1480 nM

Continued, values first:

Row | Ki | SMILES
5 | 3.6 nM | N=C(N)SCCc1cnc[nH]1 [IMETIT]
6 | 1240 nM | N=C(N)NCc1cccc(CNC(=N)N)n1
7 | 90 nM | CN(C)CCCSC(=N)N
8 | 219 nM | CCOC(=O)c1ccc(NC2=CC(=O)/C(=N\NC(=N)N)c3ccccc32)cc1
9 | 85 nM | Cc1cc(C)nc(N=C(N)NCCc2cnc[nH]2)n1
10 | 897 nM | CC(/C=C(\C)NNC(=N)N)=N/NC(=N)N

Molecular target: T1, Histamine H4 receptor
Experiment: Displacement of [3H]histamine from human histamine H4 receptor expressed in […] cells at 5 uM
Format: cell-based
Details: SK-N-MC

Row | SMILES | Activity
11 | NCCNC(=O)c1cc2ccccc2[nH]1 | 46.9%
12 | CN1CCN(c2ccccc2NC(=S)NC(=O)c2cc3ccccc3o2)CC1 | 50.3%
13 | COc1cccc(C2NCCc3[nH]cnc32)c1 (stereo unspecified) | 20.9%
14 | C[n+]1cccc(NC(=O)c2ccc(NC(=O)c3ccc(C(=O)Nc4ccc(NC(=N)N)cc4)cc3)cc2)c1 | 26%
15 | C/N=C(\N)N/N=C(/C)c1ccc2sc3ccc(/C(C)=N\N/C(N)=N/C)cc3c2c1 | 72%
16 | CC(/C=C/NNC(=N)N)=N/NC(=N)N | 33.9%

Results, then the compound that gave them:

Row | Activity | SMILES
17 | 23% | CN1CCN(C(=O)c2cccc(Nc3nc(-c4ccccc4)c4cc(Br)ccc4n3)c2)CC1
18 | 29.4% | CN(C)CCCNC(=O)/C(=C\c1cn(-c2ccccc2)nc1-c1ccc(Br)cc1)NC(=O)c1ccccc1
19 | 37.1% | N=C(N)NC(=N)Nc1ccc(Cl)cc1C(=O)c1ccccc1
20 | 67.8% | N=C(N)NCc1cccc(CNC(=N)N)n1
21 | 44% | N=C(N)NN=C1C=CC(=NNC(=N)N)C=C1
22 | 34.7% | N=C(N)NN/C(=C(\O)c1ccccc1)c1ccccc1
23 | 92.6% | CCOC(=O)c1ccc(NC2=CC(=O)/C(=N\NC(=N)N)c3ccccc32)cc1
24 | 95.8% | Cc1cc(C)nc(N/C(N)=N/CCc2c[nH]cn2)n1
25 | 34.3% | CN(CCN(C)c1ccc(N)cc1)c1ccc(N)cc1
26 | 64.3% | CC(/C=C(\C)NNC(=N)N)=N/NC(=N)N

Reference: ChEMBL document CHEMBL1150345 (J Med Chem, 2008)
